Structures are written as SMILES. Several values for one entry are separate records, joined by “and”; a condition that tells them apart may be missing. Equal values may be shown once. Read-outs that look alike come from different tables or passages of the source. Positions of bridges follow the written chain, without caps; N, C: chain ends. Non-standard residues stand in square brackets, D forms with d. Residues, ends and D or L forms follow the SMILES beside them. Phe(4-NH2) = Nc1ccc(C[C@H](N)C(=O)O)cc1; Trx = NC[C@H]1CC[C@H](C(=O)O)CC1; βAla = NCCC(=O)O Some results are limits rather than exact numbers.

Holding throughout (assay type): biochemical
For one assay, the target named is T1, human plasmin (Homo sapiens, UniProt P00747).
T1 construct: purchased Calbiochem
T1 sequence (P00747 581-810): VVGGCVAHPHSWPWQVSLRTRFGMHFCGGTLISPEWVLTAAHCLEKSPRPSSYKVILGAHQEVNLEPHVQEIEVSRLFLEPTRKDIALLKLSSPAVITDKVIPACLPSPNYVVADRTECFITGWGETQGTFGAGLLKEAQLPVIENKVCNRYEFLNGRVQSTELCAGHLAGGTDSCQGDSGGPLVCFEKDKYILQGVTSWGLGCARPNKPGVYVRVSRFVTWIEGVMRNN
T1 sequence (P00747 97-580): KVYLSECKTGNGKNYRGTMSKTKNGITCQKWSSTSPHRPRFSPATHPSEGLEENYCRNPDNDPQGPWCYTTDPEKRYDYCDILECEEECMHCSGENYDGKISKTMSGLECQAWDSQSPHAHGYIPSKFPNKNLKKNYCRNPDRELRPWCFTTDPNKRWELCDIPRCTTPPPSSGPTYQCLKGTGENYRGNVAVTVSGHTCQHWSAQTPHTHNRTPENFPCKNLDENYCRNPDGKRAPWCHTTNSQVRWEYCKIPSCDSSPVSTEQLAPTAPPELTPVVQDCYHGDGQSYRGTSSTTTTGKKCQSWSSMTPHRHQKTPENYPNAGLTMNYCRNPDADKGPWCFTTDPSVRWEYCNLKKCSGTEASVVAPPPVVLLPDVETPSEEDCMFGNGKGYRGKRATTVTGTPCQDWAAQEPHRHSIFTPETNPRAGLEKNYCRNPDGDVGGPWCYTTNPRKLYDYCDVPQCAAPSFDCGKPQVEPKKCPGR
In words: Inhibition of human plasmin, fluorogenic substrate Mes-DArg-Phe-Arg-AMC. Particulars: for fold weaker plasmin inhibition than inhibitor 28: compared with cyclic inhibitor 28. The procedure: All inhibitors prepared in this study act as reversible competitive plasmin inhibitors, their K i values were calculated by fitting the steady‐state velocities as function of the inhibitor concentrations using equation 1. 4‐aminophenylalanine (Phe(4‐NH2)) was incorporated as P1’ residue in the first inhibitor series, which enabled a macrocyclization via amide bond formation from its side chain amino group using various linker segments and P2’ residues (Table 1). […] The improved potency of SFTI‐1 analogues with basic P2’ residues[9] stimulated the incorporation of Arg in that position leading to inhibitor 4 with a slightly stronger inhibitory potency. A significant improvement could be achieved when using 3‐ or 4‐aminophenylacetic acid as P2’ group in combination with elongated linker residues (5‐6). […] However, inhibitor 9 is a twofold stronger plasmin inhibitor compared to its analogue 8.
For these inhibitors the steady‐state velocities were calculated by fitting the progress curves to equation 2 providing an additional apparent first‐order rate constant k obs for each curve. The steady‐state rates were used for K i determination with equation 1 and the k obs values for the calculation of the association rate constants k on according to equation 3. The dissociation rate constant k off was calculated from the known K i and k on values using equation 4. The enzyme kinetic evaluation of slow‐binding inhibitors of plasmin has already been described in detail in our two previous publications.[11, 12]
All measurements were conducted as triplicates in black 96‐well FluoroNunc MaxiSorp plates (Nunc, Langenselbold, Germany) and suitable fluorogenic substrates at room temperature. […] Each well contained a total volume of 180 μL consisting of 100 μL of inhibitor dissolved in buffer, 40 μL of the substrate Mes‐DArg‐Phe‐Arg‐AMC[11] (100 μM in assay, KM=16.1 μM) dissolved in water and 40 μL of plasmin solution (0.27 nM in assay). The following equations were used for the enzyme kinetic analysis as described in the results section and in our previous publications.[11, 12] (1) [drawing 71] (2) [drawing 72] (3) [drawing 73] (4) [drawing 74]

The target in the next assay is plasma kallikrein (PK) (Homo sapiens, UniProt P03952). In words: Selectivity: inhibition of plasma kallikrein. Conditions: for PK selectivity index K i(protease)/Ki(plasmin): in brackets; for Ki: read-out: PK K i. The procedure: (§1) For these three proteases a selectivity index (SI=K i(protease)/K i(plasmin)) was calculated, which is provided in brackets after the inhibition constants (Table 3).
plasma kallikrein (PK), sequence (P03952 391-638): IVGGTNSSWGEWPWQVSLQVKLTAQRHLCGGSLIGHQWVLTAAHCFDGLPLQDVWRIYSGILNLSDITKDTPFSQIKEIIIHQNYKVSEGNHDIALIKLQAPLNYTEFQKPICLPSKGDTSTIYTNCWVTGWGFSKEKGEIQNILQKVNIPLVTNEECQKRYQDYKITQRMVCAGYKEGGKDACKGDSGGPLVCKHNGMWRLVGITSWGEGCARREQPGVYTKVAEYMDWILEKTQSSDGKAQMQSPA
plasma kallikrein (PK), sequence (P03952 20-390): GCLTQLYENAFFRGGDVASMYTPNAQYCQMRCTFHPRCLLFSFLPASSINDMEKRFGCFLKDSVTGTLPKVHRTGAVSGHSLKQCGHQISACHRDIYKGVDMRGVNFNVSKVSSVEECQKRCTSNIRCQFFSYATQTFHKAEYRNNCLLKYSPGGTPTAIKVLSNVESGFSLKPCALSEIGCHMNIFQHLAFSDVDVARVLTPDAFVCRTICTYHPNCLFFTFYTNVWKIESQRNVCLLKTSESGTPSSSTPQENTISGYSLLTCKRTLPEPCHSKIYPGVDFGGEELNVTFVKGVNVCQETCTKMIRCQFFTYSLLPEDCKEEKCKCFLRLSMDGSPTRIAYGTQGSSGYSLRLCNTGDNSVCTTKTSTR
(§2) The measurements with the related trypsin‐like serine proteases trypsin, plasma kallikrein, factor XIa, thrombin, activated protein Ca and factor Xa used in selectivity studies were performed as described previously.[11, 12]

In another assay the target is factor XIa (fXIa) (Homo sapiens, UniProt P03951). Description: Selectivity: inhibition of factor XIa. Conditions: for fXIa selectivity index K i(protease)/Ki(plasmin): in brackets; for Ki: read-out: fXIa K i. The procedure: as §1, §2
factor XIa (fXIa), sequence (P03951 19-387): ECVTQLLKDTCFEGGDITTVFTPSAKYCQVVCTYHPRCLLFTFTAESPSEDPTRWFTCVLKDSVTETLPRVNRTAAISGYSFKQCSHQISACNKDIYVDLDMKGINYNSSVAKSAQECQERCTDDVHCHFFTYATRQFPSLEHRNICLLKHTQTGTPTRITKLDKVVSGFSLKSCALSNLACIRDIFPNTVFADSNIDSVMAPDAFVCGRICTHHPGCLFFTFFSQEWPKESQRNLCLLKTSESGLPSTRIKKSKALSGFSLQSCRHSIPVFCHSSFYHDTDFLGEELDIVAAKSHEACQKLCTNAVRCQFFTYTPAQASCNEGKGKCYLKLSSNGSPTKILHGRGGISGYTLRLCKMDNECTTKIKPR
factor XIa (fXIa), sequence (P03951 388-625): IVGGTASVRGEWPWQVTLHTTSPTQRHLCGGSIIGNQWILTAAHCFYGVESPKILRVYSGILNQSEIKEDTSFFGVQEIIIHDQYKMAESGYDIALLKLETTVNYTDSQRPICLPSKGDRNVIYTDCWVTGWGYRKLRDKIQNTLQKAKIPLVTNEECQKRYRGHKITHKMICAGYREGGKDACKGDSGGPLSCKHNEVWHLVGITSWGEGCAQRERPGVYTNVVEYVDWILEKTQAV
A further assay addresses thrombin (Homo sapiens, UniProt P00734). In words: Selectivity: inhibition of thrombin. Conditions: deduced from pre-assays with only three inhibitor concentrations; read-out: Thrombin K i. The procedure: as §1, §2
In assay [1] the target is activated protein C (aPC) (Homo sapiens, UniProt P04070). In words: Selectivity: inhibition of activated protein C. Conditions: deduced from pre-assays with only three inhibitor concentrations; read-out: aPC K i. The procedure: as §1, §2
activated protein C (aPC), sequence (P04070 43-197): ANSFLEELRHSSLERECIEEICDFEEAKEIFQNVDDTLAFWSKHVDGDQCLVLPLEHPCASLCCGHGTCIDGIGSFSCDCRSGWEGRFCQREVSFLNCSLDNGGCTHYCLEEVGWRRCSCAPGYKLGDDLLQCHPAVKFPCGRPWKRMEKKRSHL
activated protein C (aPC), sequence (P04070 212-461): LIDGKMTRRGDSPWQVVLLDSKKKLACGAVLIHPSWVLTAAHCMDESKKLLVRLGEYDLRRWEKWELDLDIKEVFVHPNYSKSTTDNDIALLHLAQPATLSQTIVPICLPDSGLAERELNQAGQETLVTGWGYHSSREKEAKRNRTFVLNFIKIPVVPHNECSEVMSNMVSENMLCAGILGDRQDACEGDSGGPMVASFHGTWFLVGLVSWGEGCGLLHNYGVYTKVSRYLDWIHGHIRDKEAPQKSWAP
For another assay, the target named is factor Xa (fXa) (Homo sapiens, UniProt P00742). Description: Selectivity: inhibition of factor Xa. Conditions: deduced from pre-assays with only three inhibitor concentrations; read-out: fXa K i. The procedure:
as §1, §2

The mark [2] stands for this setting: K i (μM), inhibition of plasmin, series one, 4-aminophenylalanine in P1', steady-state velocities, equation 1.
Where [3] appears, read: K i (nM), inhibition of plasmin, series two, substituted Bpa in P1', and acyclic analogues, steady-state velocities, equation 1.
Setting [4] is: Plasmin K i, Table 3 selectivity.

factor Xa (fXa), sequence (P00742 41-179): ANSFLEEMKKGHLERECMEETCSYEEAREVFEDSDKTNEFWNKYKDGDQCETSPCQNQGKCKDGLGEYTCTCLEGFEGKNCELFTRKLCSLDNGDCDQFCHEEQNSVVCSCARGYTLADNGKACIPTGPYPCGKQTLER
factor Xa (fXa), sequence (P00742 235-488): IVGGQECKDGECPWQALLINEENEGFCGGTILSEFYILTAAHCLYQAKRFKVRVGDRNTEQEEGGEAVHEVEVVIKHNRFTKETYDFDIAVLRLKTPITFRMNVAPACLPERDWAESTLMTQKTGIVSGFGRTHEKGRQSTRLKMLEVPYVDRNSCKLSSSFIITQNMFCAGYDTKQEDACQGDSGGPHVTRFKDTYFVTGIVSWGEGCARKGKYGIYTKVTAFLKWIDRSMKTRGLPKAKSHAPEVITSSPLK

`CC(C)C[C@@H]1NC(=O)CCNC(=O)Cc2ccc(cc2)NC(=O)[C@@H](NC(=O)[C@H]2CC[C@H](CN)CC2)Cc2ccc(cc2)NC1=O` [inhibitor 10]: the Ki at human plasmin (setting [2]) is 3.33 ± 0.41 µM. Turning to `Cc1ccc2cc1NC(=O)CCCNC(=O)CNC(=O)Cc1ccc(cc1)NC(=O)[C@@H](NC(=O)[C@H]1CC[C@H](CN)CC1)Cc1ccc-2cc1` [inhibitor 27], the Ki at human plasmin (setting [3]) stood at 0.017 ± 0.0006 µM. On human plasmin, the “fold weaker plasmin inhibition than inhibitor 28” value is “at least 20 fold”. For the compound `Cc1ccc2cc1NC(=O)CCNC(=O)CNC(=O)Cc1ccc(cc1)NC(=O)[C@@H](NC(=O)[C@H]1CC[C@H](CN)CC1)Cc1ccc-2cc1` [inhibitor 26], the Ki on human plasmin (setting [3]) is 0.0331 ± 0.0032 µM. The same measure, in the same setting: the same measure for `Cc1ccc2cc1NC(=O)CNC(=O)CCCCNC(=O)c1ccc3cc(ccc3c1)NC(=O)[C@@H](NC(=O)[C@H]1CC[C@H](CN)CC1)Cc1ccc-2cc1` [inhibitor 43]: 0.00514 ± 0.00027 µM; for `Cc1ccc2cc1NC(=O)CN1CCN(CC1)C(=O)Cc1ccc(cc1)NC(=O)[C@@H](NC(=O)[C@H]1CC[C@H](CN)CC1)Cc1ccc-2cc1` [inhibitor 38]: 0.0357 ± 0.0011 µM; for `Cc1ccc2cc1NC(=O)C1CCC(CC1)CNC(=O)Cc1ccc(cc1)NC(=O)C(NC(=O)C1CCC(CN)CC1)Cc1ccc-2cc1` (stereo not drawn) [inhibitor 23]: 0.109 ± 0.004 µM. For the compound `Cc1ccc2cc1NC(=O)Cc1ccc(cc1)NC(=O)Cc1ccc(cc1)NC(=O)[C@@H](NC(=O)[C@H]1CC[C@H](CN)CC1)Cc1ccc-2cc1` [inhibitor 24], the “fold enhanced plasmin potency compared with compound 22” value at human plasmin stood at 4 fold. Besides, the Ki at human plasmin (setting [3]) was determined as 0.0105 ± 0.0014 µM.

`Cc1ccc2cc1NC(=O)CNC(=O)CCCNC(=O)Cc1ccc(cc1)NC(=O)[C@@H](NC(=O)[C@H]1CC[C@H](CN)CC1)Cc1ccc-2cc1` [inhibitor 28]: the “fold stronger plasmin inhibition than acyclic analogues 46 and 47” value on human plasmin was “approximately 75 fold”. The Ki was 0.00083 µM and 0.000832 µM on human plasmin (setting [3]); 0.000832 µM at human plasmin (setting [4]); 31 ± 14 nM at plasma kallikrein (PK); 41 ± 3.2 nM on factor XIa (fXIa); above 60000 nM at thrombin; above 35000 nM in assay [1]. The Ki on factor Xa (fXa) was above 8000 nM. At plasma kallikrein (PK), the “PK selectivity index K i(protease)/Ki(plasmin)” value stood at 38. Further, the “fXIa selectivity index K i(protease)/Ki(plasmin)” value on factor XIa (fXIa) turned out to be 49. Consider `Cc1ccc2cc1NC(=O)CCCCCNC(=O)Cc1ccc(cc1)NC(=O)[C@@H](NC(=O)[C@H]1CC[C@H](CN)CC1)Cc1ccc-2cc1` [inhibitor 22], for which, at human plasmin (setting [3]), the Ki is 0.042 µM and 0.0421 µM. Regarding `Cc1ccc(-c2ccc(C[C@H](NC(=O)[C@H]3CC[C@H](CN)CC3)C(=O)Nc3ccc(CC(=O)NCCCC(=O)NCC(=O)O)cc3)cc2)cc1N` [inhibitor 46], the Ki at human plasmin (setting [3]) worked out at 0.0861 ± 0.0066 µM. Still for that read-out and setting: the same measure for `Cc1ccc2cc1NC(=O)CNC(=O)CCCCNC(=O)Cc1ccc(cc1)NC(=O)[C@@H](NC(=O)[C@H]1CC[C@H](CN)CC1)Cc1ccc-2cc1` [inhibitor 29]: 0.0626 ± 0.0023 µM.

With `Cc1ccc2cc1NC(=O)C(Cc1ccccc1)NC(=O)CCCNC(=O)Cc1ccc(cc1)NC(=O)C(NC(=O)C1CCC(CN)CC1)Cc1ccc-2cc1` (stereo not drawn) [inhibitor 30], the Ki is 0.00208 ± 5e-05 µM on human plasmin (setting [3]); 0.00208 µM on human plasmin (setting [4]); 60 ± 12 nM at plasma kallikrein (PK); 47 ± 2 nM on factor XIa (fXIa); above 30000 nM at thrombin; above 5000 nM in assay [1]. Further, at factor Xa (fXa), the Ki was above 80000 nM. The “PK selectivity index K i(protease)/Ki(plasmin)” value at plasma kallikrein (PK) is 30. Also, on factor XIa (fXIa), the “fXIa selectivity index K i(protease)/Ki(plasmin)” value was 23. Turning to `N=C(N)NCCC[C@@H]1NC(=O)[C@@H](NC(=O)[C@H]2CC[C@H](CN)CC2)Cc2ccc(cc2)NC(=O)CCNC1=O` [inhibitor 4] (H-[Trx][Phe(4-NH2)]R[βAla]; lactam 2-C), the Ki on human plasmin (setting [2]) is 110 ± 56 µM. As to `Cc1ccc2cc1NC(=O)[C@H](N)CCCCNC(=O)Cc1ccc(cc1)NC(=O)[C@@H](NC(=O)[C@H]1CC[C@H](CN)CC1)Cc1ccc-2cc1` [inhibitor 34], at human plasmin (setting [3]), the Ki worked out at 0.0365 ± 0.0007 µM. Turning to `NC[C@H]1CC[C@H](C(=O)N[C@H]2Cc3ccc(cc3)NC(=O)[C@H](Cc3ccccc3)NC(=O)CCNC(=O)Cc3ccc(cc3)NC2=O)CC1` [inhibitor 12, (1r,4S)‐4‐(aminomethyl)‐N‐((4S,9S)‐9‐benzyl‐3,8,11,15‐tetraoxo‐2,7,10,14‐tetraaza‐1,6(1,4)‐dibenzenacyclohexadecaphane‐4‐yl)cyclohexane‐1‐carboxamide], on human plasmin (setting [2]), the Ki was 0.71 µM and 0.714 µM. Regarding `NC[C@H]1CC[C@H](C(=O)N[C@H]2Cc3ccc(cc3)NC(=O)CCCCNC(=O)Cc3ccc(cc3)NC2=O)CC1` [inhibitor 7], the Ki on human plasmin (setting [2]) was 2.45 ± 0.02 µM.

Turning to `Cc1ccc2cc1NC(=O)CNC(=O)CCCNC(=O)Cc1cccc(c1)CNC(=O)[C@@H](NC(=O)[C@H]1CC[C@H](CN)CC1)Cc1ccc-2cc1` [inhibitor 42], the Ki on human plasmin (setting [3]) was 0.284 ± 0.024 µM. The same measure, in the same setting: for `Cc1ccc2cc1NC(=O)CNC(=O)CCNC(=O)Cc1cccc(c1)NC(=O)[C@@H](NC(=O)[C@H]1CC[C@H](CN)CC1)Cc1ccc-2cc1` [inhibitor 41] the value was 0.0206 ± 0.0005 µM. As to `Cc1ccc2cc1NC(=O)CNC(=O)CCCNC(=O)c1ccc3cc(ccc3c1)NC(=O)[C@@H](NC(=O)[C@H]1CC[C@H](CN)CC1)Cc1ccc-2cc1` [inhibitor 44], the Ki at human plasmin (read-out: K i (nM), inhibition of plasmin, series two, substituted Bpa in P1', and acyclic analogues, steady-state velocities, equation 1) is 0.0103 ± 0.0002 µM. `NC[C@H]1CC[C@H](C(=O)N[C@H]2Cc3ccc(cc3)NC(=O)CCCCCNC(=O)Cc3cccc(c3)NC2=O)CC1` [inhibitor 5]: the Ki at human plasmin (setting [2]) amounted to 5.81 ± 1.09 µM. On the same count and under the same terms, the same measure for `NC[C@H]1CC[C@H](C(=O)N[C@H]2Cc3ccc(cc3)NC(=O)CCCCCNC(=O)Cc3ccc(cc3)NC2=O)CC1` [inhibitor 6]: 1.38 ± 0.15 µM. As to `Cc1ccc2cc1NC(=O)CCN1CCN(CC1)C(=O)Cc1ccc(cc1)NC(=O)[C@@H](NC(=O)[C@H]1CC[C@H](CN)CC1)Cc1ccc-2cc1` [inhibitor 37], the Ki at human plasmin (setting [3]) was 0.013 ± 0.0002 µM. As to `CC(C)C[C@H]1NC(=O)CCNC(=O)Cc2ccc(cc2)NC(=O)[C@@H](NC(=O)[C@H]2CC[C@H](CN)CC2)Cc2ccc(cc2)NC1=O` [inhibitor 11], the Ki on human plasmin (setting [2]) was found to be 3.85 ± 0.28 µM. With `NC[C@H]1CC[C@H](C(=O)N[C@H]2Cc3ccc(cc3)NC(=O)CCNC(=O)CNC(=O)Cc3ccc(cc3)NC2=O)CC1` [inhibitor 8], the Ki at human plasmin (setting [2]) was found to be 5.53 ± 0.42 µM. As to `Cc1ccc2cc1NC(=O)[C@@H](N)CCCCNC(=O)Cc1ccc(cc1)NC(=O)[C@@H](NC(=O)[C@H]1CC[C@H](CN)CC1)Cc1ccc-2cc1` [inhibitor 35], at human plasmin (setting [3]), the Ki worked out at 0.0298 ± 0.0016 µM. Turning to `NC[C@H]1CC[C@H](C(=O)N[C@H]2Cc3ccc(cc3)NC(=O)CCNC(=O)CNC2=O)CC1` [inhibitor 3] (H-[Trx][Phe(4-NH2)]G[βAla]; lactam 2-C), the Ki on human plasmin (setting [2]) worked out at 150 ± 31 µM. Take `Cc1ccc2cc1NC(=O)CCCN1CCN(CC1)C(=O)Cc1ccc(cc1)NC(=O)[C@@H](NC(=O)[C@H]1CC[C@H](CN)CC1)Cc1ccc-2cc1` [inhibitor 36]: at human plasmin (setting [3]), the Ki turned out to be 0.112 ± 0.006 µM.

Consider `Cc1ccc(-c2ccc(C[C@H](NC(=O)[C@H]3CC[C@H](CN)CC3)C(=O)Nc3ccc(CC(=O)NCCCC(=O)NCC(N)=O)cc3)cc2)cc1N` [inhibitor 47], for which the Ki on human plasmin (setting [3]) came to 0.0651 ± 0.0017 µM. In the case of `Cc1ccc2cc1NC(=O)CNC(=O)CCCCNC(=O)Cc1cccc(c1)NC(=O)[C@@H](NC(=O)[C@H]1CC[C@H](CN)CC1)Cc1ccc-2cc1` [inhibitor 39], the Ki on human plasmin (setting [3]) turned out to be 0.0269 ± 0.0005 µM. For `NC[C@H]1CC[C@H](C(=O)N[C@H]2Cc3ccc(cc3)NC(=O)CNC(=O)CCNC(=O)Cc3ccc(cc3)NC2=O)CC1` [inhibitor 9], at human plasmin (setting [2]), the Ki amounted to 2.82 ± 0.2 µM.

Take `Cc1ccc2cc1NC(=O)CNC(=O)CCNC(=O)Cc1ccc(cc1)NC(=O)[C@@H](NC(=O)[C@H]1CC[C@H](CN)CC1)Cc1ccc-2cc1` [inhibitor 25]: the Ki on human plasmin (setting [3]) is 0.0338 ± 0.0014 µM. Also, the “fold weaker plasmin inhibition than inhibitor 28” value on human plasmin is on record as “at least 20 fold”.

Values taken from PMC11617653, “Macrocyclic Inhibitors Targeting the Prime Site of the Fibrinolytic Serine Protease Plasmin” (Chemmedchem, 2024).
